Test results as given in ChEMBL document CHEMBL1201862, “PubChem BioAssay data set” (2004).
Calls of active or inactive are those of the source.

How the values were obtained:
[1] = growth suppression of beta-catenin-knockout colon cells, dose response, cell-based, HCT116, human colon tumor (AID 1045); type: functional;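 further: HCT116 colon tumor cells with beta catenin knocked out; cells exposed to compound for 60 hours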
[2] = growth suppression of PTEN-null colon cells, dose response, cell-based, HCT116 PTEN knockout (AID 1047); type: functional;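 further: HCT116 colon tumor cells with PTEN knocked out; cells exposed to compound for 60 hours before readout; potency for loss of cell viability measured by luminescence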
[3] = molecular target: FAD-linked sulfhydryl oxidase ALR (Homo sapiens, UniProt P55789); experiment: inhibitors of human ALR sulfhydryl oxidase, dose response, biochemical, H2O2 detection, luminescence, cherry-pick (AID 493248)
Chain of FAD-linked sulfhydryl oxidase ALR (P55789 whole entry, the tested form may be a part): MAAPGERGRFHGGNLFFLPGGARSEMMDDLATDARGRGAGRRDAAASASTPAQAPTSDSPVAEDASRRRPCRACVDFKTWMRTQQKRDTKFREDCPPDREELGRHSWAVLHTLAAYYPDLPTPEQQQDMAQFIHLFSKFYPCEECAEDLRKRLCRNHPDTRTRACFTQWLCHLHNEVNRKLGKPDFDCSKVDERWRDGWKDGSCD

Fatty acid synthase [4] = molecular target: T1, Fatty acid synthase (Homo sapiens, UniProt P49327); experiment: FAS thioesterase domain inhibitors, dose response, biochemical, endpoint fluorescence intensity, uHTS hits (AID 624327); type: functional;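 further: fluorescence from hydrolysis of an O-methyl fluorescein acyl ester substrate by the enzyme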
T1 sequence (P49327 whole entry, the tested form may be a part): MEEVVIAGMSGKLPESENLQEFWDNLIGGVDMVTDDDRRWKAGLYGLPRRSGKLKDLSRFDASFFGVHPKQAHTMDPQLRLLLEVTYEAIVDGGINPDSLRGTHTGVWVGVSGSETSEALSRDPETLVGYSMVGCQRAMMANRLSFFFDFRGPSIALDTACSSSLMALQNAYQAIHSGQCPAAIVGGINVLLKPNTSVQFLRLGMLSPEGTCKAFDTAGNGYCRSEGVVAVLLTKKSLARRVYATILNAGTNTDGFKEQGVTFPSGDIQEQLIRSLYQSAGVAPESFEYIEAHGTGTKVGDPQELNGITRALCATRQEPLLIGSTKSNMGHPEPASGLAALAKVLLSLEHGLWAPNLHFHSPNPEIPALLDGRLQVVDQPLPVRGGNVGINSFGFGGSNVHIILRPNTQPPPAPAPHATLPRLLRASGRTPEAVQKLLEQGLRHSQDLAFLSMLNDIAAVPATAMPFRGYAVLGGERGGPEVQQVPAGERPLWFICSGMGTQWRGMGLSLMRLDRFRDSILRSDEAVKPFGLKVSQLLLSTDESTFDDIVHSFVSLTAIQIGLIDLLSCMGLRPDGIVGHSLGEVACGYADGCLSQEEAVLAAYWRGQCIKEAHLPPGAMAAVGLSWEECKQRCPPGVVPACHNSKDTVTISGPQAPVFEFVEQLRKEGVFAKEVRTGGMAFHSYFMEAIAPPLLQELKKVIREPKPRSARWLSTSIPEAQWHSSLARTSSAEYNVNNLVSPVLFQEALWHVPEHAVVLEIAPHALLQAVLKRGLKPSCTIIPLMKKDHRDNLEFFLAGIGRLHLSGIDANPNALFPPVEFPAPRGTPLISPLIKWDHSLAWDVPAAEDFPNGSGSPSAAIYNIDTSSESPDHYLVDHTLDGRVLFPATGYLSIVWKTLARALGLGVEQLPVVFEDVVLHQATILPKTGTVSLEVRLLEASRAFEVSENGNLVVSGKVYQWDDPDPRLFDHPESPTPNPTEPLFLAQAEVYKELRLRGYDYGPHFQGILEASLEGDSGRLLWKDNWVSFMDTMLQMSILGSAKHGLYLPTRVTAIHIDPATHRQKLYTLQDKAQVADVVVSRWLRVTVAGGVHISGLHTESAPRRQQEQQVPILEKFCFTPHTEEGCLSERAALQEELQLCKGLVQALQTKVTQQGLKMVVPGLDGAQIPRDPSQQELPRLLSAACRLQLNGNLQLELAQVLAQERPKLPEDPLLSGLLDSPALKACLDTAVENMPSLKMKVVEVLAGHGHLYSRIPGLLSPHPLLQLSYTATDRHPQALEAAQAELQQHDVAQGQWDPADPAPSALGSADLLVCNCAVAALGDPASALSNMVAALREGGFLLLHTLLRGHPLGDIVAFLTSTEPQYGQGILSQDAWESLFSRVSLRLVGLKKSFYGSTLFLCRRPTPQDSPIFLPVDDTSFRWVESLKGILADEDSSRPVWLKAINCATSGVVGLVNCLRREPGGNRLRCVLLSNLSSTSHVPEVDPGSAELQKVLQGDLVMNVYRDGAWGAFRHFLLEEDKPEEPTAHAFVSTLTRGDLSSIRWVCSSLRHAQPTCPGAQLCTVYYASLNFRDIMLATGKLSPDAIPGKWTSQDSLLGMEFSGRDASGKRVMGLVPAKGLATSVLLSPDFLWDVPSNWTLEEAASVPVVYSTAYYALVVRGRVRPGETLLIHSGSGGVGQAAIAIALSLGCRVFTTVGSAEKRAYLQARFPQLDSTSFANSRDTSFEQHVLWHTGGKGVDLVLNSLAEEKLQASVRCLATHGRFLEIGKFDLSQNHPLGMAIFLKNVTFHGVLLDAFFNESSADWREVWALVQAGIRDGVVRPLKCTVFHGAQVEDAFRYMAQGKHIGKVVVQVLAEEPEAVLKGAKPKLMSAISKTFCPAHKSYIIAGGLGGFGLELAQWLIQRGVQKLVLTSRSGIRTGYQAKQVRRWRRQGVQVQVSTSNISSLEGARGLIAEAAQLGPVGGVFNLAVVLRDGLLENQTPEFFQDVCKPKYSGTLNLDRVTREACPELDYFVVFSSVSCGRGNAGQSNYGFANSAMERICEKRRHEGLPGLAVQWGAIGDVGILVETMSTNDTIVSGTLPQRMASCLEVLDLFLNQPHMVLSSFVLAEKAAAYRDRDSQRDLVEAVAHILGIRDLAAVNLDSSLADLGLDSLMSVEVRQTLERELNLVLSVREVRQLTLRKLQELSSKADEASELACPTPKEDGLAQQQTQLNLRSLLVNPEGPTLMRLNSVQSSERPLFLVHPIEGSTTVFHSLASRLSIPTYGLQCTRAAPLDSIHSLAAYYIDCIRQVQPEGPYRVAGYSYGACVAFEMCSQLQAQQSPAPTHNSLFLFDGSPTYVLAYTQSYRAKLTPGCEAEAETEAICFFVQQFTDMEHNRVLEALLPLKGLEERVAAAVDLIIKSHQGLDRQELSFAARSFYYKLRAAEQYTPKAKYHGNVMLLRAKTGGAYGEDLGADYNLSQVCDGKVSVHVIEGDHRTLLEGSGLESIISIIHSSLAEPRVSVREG

Fatty acid synthase [5] = molecular target: T1, Fatty acid synthase; experiment: FAS thioesterase domain inhibitors, dose response, biochemical, kinetic fluorescence intensity (AID 624326); type: functional;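 further: rate of fluorescence rise from hydrolysis of a fluorogenic O-methyl fluorescein ester substrate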
[6] = cytotoxicity toward NIH3T3 fibroblasts, dose response, counter-screen, cell-based, ATP luminescence, mouse fibroblasts (AID 2010); type: functional;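 further: cells exposed to compound for about 90 hours before reading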
[7] = inhibitors of intracellular T. cruzi replication, confirmation, NIH3T3 host cells, beta-gal luminescence (AID 2044); type: functional, cell-based;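 further: intracellular parasites grown in NIH/3T3 mouse fibroblasts as host cells; luminescent beta-galactosidase reporter signal from transgenic T. cruzi replicating inside host cells; inhibitors lower the luminescence signal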
Cytochrome P450 2D6 = Cytochrome P450 2D6 (Homo sapiens, UniProt P10635);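 further: CYP2D6 member of a cytochrome P450 panel assay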
Chain of Cytochrome P450 2D6 (P10635 whole entry): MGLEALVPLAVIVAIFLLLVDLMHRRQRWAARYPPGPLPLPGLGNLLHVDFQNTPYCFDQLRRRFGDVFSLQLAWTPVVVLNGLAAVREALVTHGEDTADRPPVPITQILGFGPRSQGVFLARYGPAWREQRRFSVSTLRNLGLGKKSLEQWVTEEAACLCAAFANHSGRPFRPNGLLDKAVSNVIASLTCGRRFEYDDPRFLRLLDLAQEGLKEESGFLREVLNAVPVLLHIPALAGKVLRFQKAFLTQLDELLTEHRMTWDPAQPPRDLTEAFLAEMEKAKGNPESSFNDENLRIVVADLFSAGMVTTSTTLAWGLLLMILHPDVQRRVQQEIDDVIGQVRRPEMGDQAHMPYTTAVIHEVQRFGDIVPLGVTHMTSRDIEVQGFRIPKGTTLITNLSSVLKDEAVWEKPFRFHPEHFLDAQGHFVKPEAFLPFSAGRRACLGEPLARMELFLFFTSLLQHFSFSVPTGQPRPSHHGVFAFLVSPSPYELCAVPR

[8] = HEp-2 cell cytotoxicity, dose response, cytotoxicity control for RSV inhibitor project, HTS (AID 2410); type: functional; details: human respiratory syncytial virus
INS1 = experiment: beta cell apoptosis inhibitors, cytokine rescue, dose response, luminescence, retest (AID 449756); type: functional, cell-based; details: Rattus norvegicus;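 further: cell death triggered by IL-1 beta plus TNF-alpha plus IFN-gamma mixture; protective hits raise ATP signal compared with cytokine alone wells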
[9] = molecular target: T2, Corticotropin-releasing factor receptor 2/Corticotropin-releasing factor-binding protein (Homo sapiens, UniProt P24387+Q13324); experiment: activators of CRF receptor 2 with binding protein – uHTS hits, confirmation (AID 602473); type: functional; details: read-out: EC50_Mean
T2 sequence (Q13324 whole entry): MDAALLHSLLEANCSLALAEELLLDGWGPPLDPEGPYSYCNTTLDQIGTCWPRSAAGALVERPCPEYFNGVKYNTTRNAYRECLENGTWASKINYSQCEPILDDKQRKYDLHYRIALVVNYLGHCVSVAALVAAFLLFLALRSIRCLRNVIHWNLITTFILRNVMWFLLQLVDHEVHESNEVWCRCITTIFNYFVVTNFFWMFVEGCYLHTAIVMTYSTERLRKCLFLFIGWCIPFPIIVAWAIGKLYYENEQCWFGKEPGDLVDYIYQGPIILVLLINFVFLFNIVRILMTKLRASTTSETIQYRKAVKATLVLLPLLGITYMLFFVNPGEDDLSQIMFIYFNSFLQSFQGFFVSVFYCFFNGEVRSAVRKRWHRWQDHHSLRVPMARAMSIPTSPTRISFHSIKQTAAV
T2 sequence (P24387 whole entry): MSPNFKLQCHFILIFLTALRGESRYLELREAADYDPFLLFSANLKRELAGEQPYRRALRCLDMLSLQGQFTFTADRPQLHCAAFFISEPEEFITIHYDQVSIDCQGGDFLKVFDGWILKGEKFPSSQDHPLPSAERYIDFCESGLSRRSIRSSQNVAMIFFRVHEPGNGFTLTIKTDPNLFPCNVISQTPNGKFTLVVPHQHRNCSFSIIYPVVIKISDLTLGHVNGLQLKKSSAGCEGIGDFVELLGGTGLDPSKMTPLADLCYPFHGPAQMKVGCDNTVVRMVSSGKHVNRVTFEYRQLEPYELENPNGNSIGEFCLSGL

[10] = molecular target: T2, Corticotropin-releasing factor receptor 2/Corticotropin-releasing factor-binding protein; experiment: Dose Response confirmation of uHTS hits for small molecule antagonists of the CRF-binding protein and CRF-R2 receptor complex.; type: functional; details: read-out: IC50_Mean

Structure (SMILES) | AC50 [3] | IC50 (Fatty acid synthase [4]) | IC50 (Fatty acid synthase [5]) | further results
CC(Cc1cccs1)NC(=O)Nc1ccc(Cl)c(Cl)c1 (stereo not drawn) | – | – | – | EC50 [1]: 22.6 µM (active); EC50 [2]: 17.4 µM (active)
COc1ccc(Cn2c(S)nnc2-c2ccc(OC)cc2)cc1 | 0.009 µM (active) | – | – | –
Cn1sc(NC(=O)c2ccc(Cl)cc2)nc1=O | 1.88 µM (active) | – | – | –
CCN(CC)S(=O)(=O)c1ccc(N2CCc3ccccc3C2)nc1 | – | 4.19 µM (active) | 9.71 µM (active) | –
O=C(COC(=O)c1cccc([N+](=O)[O-])c1)NC1CCCC1 | – | 9.58 µM (active) | 8.78 µM (active) | –
O=C(COC(=O)c1[nH]nc2ccccc12)NC(=O)NC12CC3CC(CC(C3)C1)C2 | – | – | – | EC50 [1]: 22.1 µM (active); EC50 [2]: 14.8 µM (active)
O=[N+]([O-])c1ccccc1-c1cc(-c2cc(Cl)ccc2O)n[nH]1 | – | – | – | EC50 [1]: 27 µM (active); EC50 [2]: 19.5 µM (active)
Cc1ccn2c(=O)nc(SCC(=O)N3N=C(c4cccs4)CC3c3ccc(F)cc3)nc2c1 (stereo not drawn) | – | 13.9 µM (active) | 10.3 µM (active) | EC50 [6]: > 60 µM (not active); EC50 [7]: 1.35 µM (active)
COc1ccc(NC2CCCN(C(=O)CCc3ccncc3)C2)cc1OC (stereo not drawn) | 4.75 µM (active) | – | – | –
CN(C)S(=O)(=O)c1cccc(-c2cn3cccnc3n2)c1 | 0.278 µM (active) | – | – | –
COc1ccc2[nH]c(N3CCCC3)nc2c1 | 6.11 µM (active) | – | – | –
Cc1cc(C)c(Cn2cnc(-c3ccc([N+](=O)[O-])cc3)c2)c(C)c1 | – | 12.9 µM (active) | 12.6 µM (active) | AC50 (Cytochrome P450 2D6): 28.2 µM (inconclusive)
Cc1ccc(OCC(=O)Nc2ccc(O)c(-c3nc4ccccc4o3)c2)cc1 | – | – | – | EC50 [1]: 32.7 µM (active); EC50 [2]: 26.8 µM (active)
Fc1ccc(-n2c(Cc3ccccc3)nnc2SCc2nc(-c3ccc(Cl)cc3)no2)cc1 | – | 14 µM (active) | 8.88 µM (active) | –
Nc1c(C(=O)Nc2ccc(S(=O)(=O)N3CCCC3)cc2)sc2nc3cc4c(cc3cc12)CCC4 | – | – | – | EC50 [1]: 4.81 µM (active); CC50 [8]: 27.9 µM (active); EC50 [2]: 4.9 µM (active); AC50 (INS1): 3.29 µM (active)
CCNc1ccc(S(=O)(=O)N(C)C)cc1NCC(=O)Nc1ccccc1Cl | 5.58 µM (active) | – | – | –
CCCCNC(=O)C1CC(c2c(Cl)cccc2Cl)=NO1 (stereo not drawn) | – | – | – | EC50 [1]: 29.6 µM (active); EC50 [2]: 21.8 µM (active)
O=C(/C=C/c1cccc([N+](=O)[O-])c1)NCCc1ccc(F)cc1 | – | 10.7 µM (active) | 11.8 µM (active) | –
Cc1c(C)c2ccc(OCC(=O)N3CCN(c4ccccc4)CC3)cc2oc1=O | – | 5.34 µM (active) | 6.95 µM (active) | –
O=C(c1cc2cc3ccc(Cl)cc3nc2o1)N1CCCCCC1 | – | 18.7 µM (active) | 15.6 µM (active) | –
Cc1noc(C)c1NC(=O)Nc1cccc2c1O[C@H](CN(C)C(=O)Nc1ccccc1)[C@@H](C)CN([C@H](C)CO)C2=O | – | 13 µM (active) | 9.53 µM (active) | –
CN(C)S(=O)(=O)c1ccc(C(=O)N2CCN=C2SCc2cccnc2)cc1 | 0.017 µM (active) | – | – | –
NC(=S)N/N=C/c1ccc(-c2ccc(SC(F)F)cc2)o1 | – | 16.9 µM (active) | 80 µM (inactive) | EC50 [9]: > 53 µM (inactive); EC50 [6]: 12.7 µM (active); EC50 [7]: 0.895 µM (active); IC50 [10]: > 47.1 µM (inactive)
O=C(CNc1cccc2ccccc12)N/N=C/C(Br)=C/c1ccccc1 | – | – | – | EC50 [1]: 25.8 µM (active); EC50 [2]: 22.9 µM (active)
O=C(CC1C[C@H](C(=O)N2CCOCC2)[C@@]2(CCC3CCCC3)c3[nH]c4ccccc4c3CCN2C1=O)NCCN1CCOCC1 (stereo partly drawn) | – | 2.6 µM (active) | 2.17 µM (active) | –
Cc1nc(C#N)c(N/N=C/c2cccc(Cl)c2)o1 | 1.66 µM (active) | – | – | –
